Data: PMC12041767 (Journal of immunology (Baltimore, Md. : 1950), 2025)

Columns and labels:
[1] = molecular target: HLA-E*01:03 (Homo sapiens, UniProt P13747); assay type: binding; conditions: S/P relative to positive control […] or […], tested at least two times, median, Figure 1
[2] = molecular target: NKG2A/CD94 (Homo sapiens, UniProt P26715+Q13241); assay type: binding
Chain of NKG2A/CD94 (P26715 whole entry): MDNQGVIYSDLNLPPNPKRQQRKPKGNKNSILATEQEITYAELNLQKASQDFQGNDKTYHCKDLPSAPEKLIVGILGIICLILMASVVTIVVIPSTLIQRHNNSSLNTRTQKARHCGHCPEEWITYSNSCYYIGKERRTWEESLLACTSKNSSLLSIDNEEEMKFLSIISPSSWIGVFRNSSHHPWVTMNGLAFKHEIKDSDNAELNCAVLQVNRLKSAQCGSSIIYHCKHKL
Chain of NKG2A/CD94 (Q13241 whole entry): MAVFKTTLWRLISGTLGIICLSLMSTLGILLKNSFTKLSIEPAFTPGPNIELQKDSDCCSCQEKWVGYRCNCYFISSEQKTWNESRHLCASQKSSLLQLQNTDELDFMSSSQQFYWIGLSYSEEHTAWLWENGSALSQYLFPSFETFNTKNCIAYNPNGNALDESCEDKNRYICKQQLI

| Sequence | Peptide binding affinity for HLA-E*01:03 (signal to positive, S/P, ratio), in words [1] | Interaction of thermal exchanged HLA-E TM/peptide complex with NKG2A/CD94, in words [2] |
| --- | --- | --- |
| VMAPRTLVL [Mtb55-VL9-hybrid] | increased the affinity | could interact |
| VMTPRTLTL [Mtb34-VL9-hybrid] | increased the affinity |  |
